Experiment: GSNO stability as a function of pH
Assay type: physicochemical
Settings: alkaline conditions
Experimental: The stability of the formulations was tested via UV/Vis analysis and/or via the electrochemical NOA.

pH above which GSNO instability and hence NO generation begins to increase: above 8.5
SMILES: N[C@@H](CCC(=O)N[C@@H](CSN=O)C(=O)NCC(=O)O)C(=O)O [GSNO, S-nitrosoglutathione]

— patent US12667686B2, “Nitric oxide generating systems” (NOTA Laboratories, LLC, priority 2019, dated 2026)
